Consider 31 molecules from US8871756B2 (Hoffmann-La Roche Inc., priority 2011, dated 2014).

The assay deals with RSV Long strain. Put plainly: Viral cytopathic effect (CPE) assay, anti-RSV activity. The class given is cell-based, Respiratory Syncytial Virus. As to conditions: RSV Long strain (ATCC), cell viability after 6 days, Cell Counting kit-8. Here is the method: Viral cytopathic effect (CPE) assay: To measure anti-RSV activity of compounds, 96-well plates are seeded with 6×10^3 cells per well in Dulbecco's modified Eagle's medium (DMEM) containing 10% fetal bovine serum (FBS). Cells are infected the next day with sufficient RSV Long strain (ATCC) to produce an approximately 80-90% cytopathic effect after 6 days, in the presence of serial half-log diluted compound in a total volume of 200 μL per well. The viability of cells is assessed after 6 days using Cell Counting kit-8 (Dojindo Molecular Technologies). The absorbance at 450 nm and referenced at 630 nm is measured to determine 50% effective concentration (EC50).
The compounds of the present invention were tested for their anti-RSV activity, and the activation as described herein. The Examples were tested in the above assay and found to have EC50 of about 0.0001 μM to about 10 μM.
For orientation: Cytopathic effects are the visible damage that an infection or toxin causes in cultured cells.

[1] abbreviates: human respiratory syncytial virus, 144 h.

For orientation: EC50 means the concentration at which the effect is half-maximal. Consider `Cc1ccc2nc(N3CCS(=O)(=O)c4ccccc4C3)cc(NC(=O)C3CNC(=O)C3)c2c1` (stereo not shown) [Example 47-2, N-[2-(1,1-Dioxido-2,3-dihydro-1,4-benzothiazepin-4(5H)-yl)-6-methylquinolin-4-yl]-5-oxopyrrolidine-3-carboxamide], for which the EC50 under setting [1] was 5.82 µM. `Cc1ccc2nc(N3CCS(=O)(=O)c4ccccc4C3)cc(NCC3(N)CCC3)c2c1` [Example 3-54, N-[(1-Aminocyclobutyl)methyl]-2-(1,1-dioxido-2,3-dihydro-1,4-benzothiazepin-4(5H)-yl)-6-methylquinolin-4-amine]: under setting [1], the midpoint of the response, the EC50, lay at 0.114 µM. Turning to `COc1ccc2c(c1)CN(c1cc(NCC3(CNC(C)=O)COC3)c3cc(C)ccc3n1)CCS2(=O)=O` [Example 3-6, N-{[3-({[2-(7-Methoxy-1,1-dioxido-2,3-dihydro-1,4-benzothiazepin-4(5H)-yl)-6-methylquinolin-4-yl]amino}methyl)oxetan-3-yl]methyl}acetamide], the EC50 under setting [1] is 0.058 µM. `Cc1ccc2nc(N3CC[S+]([O-])c4ccccc4C3)cc(NCC3(N)COC3)c2c1` (single isomer, unassigned; (+)) [Example 18-2, (+)-N-[(3-Aminooxetan-3-yl)methyl]-6-methyl-2-[1-oxido-2,3-dihydro-1,4-benzothiazepin-4(5H)-yl]quinolin-4-amine] yielded an EC50 of 0.024 µM.

Regarding `Cc1ccc2nc(N3CCS(=O)(=O)c4ccccc4C3)cc(NC(=O)c3cccnn3)c2c1` [Example 3-58, N-[2-(1,1-Dioxido-2,3-dihydro-1,4-benzothiazepin-4(5H)-yl)-6-methylquinolin-4-yl]pyridazine-3-carboxamide], the EC50 under setting [1] is 0.184 µM. On the same count and under the same terms, under `Cc1ccc2nc(N3CCS(=O)(=O)c4ccccc4C3)cc(NCCCCCCCN)c2c1` [Example 3-30, N-[2-(1,1-Dioxido-2,3-dihydro-1,4-benzothiazepin-4(5H)-yl)-6-methylquinolin-4-yl]heptane-1,7-diamine] stands 7.81 µM. On the same count and under the same terms, then `Cc1ccc2nc(N3CCS(=O)(=O)c4ccccc4C3)cc(NC3=NCCN3)c2c1` [Example 7, N-(4,5-Dihydro-1H-imidazol-2-yl)-2-(1,1-dioxido-2,3-dihydro-1,4-benzothiazepin-4(5H)-yl)-6-methylquinolin-4-amine], with 1.42 µM. The same measure, in the same setting: then `NCCCNc1cc(N2CCS(=O)(=O)c3ccccc3C2)nc2ccc(OCCO)cc12` [Example 30-1, 2-({4-[(3-Aminopropyl)amino]-2-(1,1-dioxido-2,3-dihydro-1,4-benzothiazepin-4(5 H)-yl)quinolin-6-yl}oxy)ethanol], with 0.317 µM; and `Cc1ccc2nc(N3CC[S+]([O-])c4ccccc4C3)cc(N3CCC(N)C3)c2c1` (stereo not shown) [Example 19-4, 1-[6-Methyl-2-(1-oxido-2,3-dihydro-1,4-benzothiazepin-4(5H)-yl)quinolin-4-yl]pyrrolidin-3-amine], with 0.02 µM; and `Cc1ccc2nc(N3CCS(=O)(=O)c4ccccc4C3)cc(N3CCCNCC3)c2c1` [Example 3-36, 4-[4-(1,4-Diazepan-1-yl)-6-methylquinolin-2-yl]-2,3,4,5-tetrahydro-1,4-benzothiazepine 1,1-dioxide], with 0.092 µM. Molecule `NCCNc1cc(N2CCCc3cccc(F)c3C2)nc2ccc(Cl)cc12` [Example 118-6, N-[6-Chloro-2-(9-fluoro-1,3,4,5-tetrahydro-2H-2-benzazepin-2-yl)quinolin-4-yl]ethane-1,2-diamine] registered an EC50 under setting [1] of 0.173 µM.

Take `Cc1ccc2nc(N3CCC(F)(F)c4ccccc4C3)cc(NCC(C)(C)N)c2c1` [Example 110-12, N˜1˜-[2-(5,5-Difluoro-1,3,4,5-tetrahydro-2H-2-benzazepin-2-yl)-6-methylquinolin-4-yl]-2-methylpropane-1,2-diamine]: the EC50 under setting [1] amounted to 0.072 µM. Consider `NC1(CNc2cc(N3CCS(=O)(=O)c4ccccc4C3)nc3ccc(CO)cc23)COC1` [Example 3-23, [4-{[(3-Aminooxetan-3-yl)methyl]amino}-2-(1,1-dioxido-2,3-dihydro-1,4-benzothiazepin-4(5H)-yl)quinolin-6-yl]methanol], for which the EC50 under setting [1] was determined as 0.002 µM.

Under setting [1], `Cc1ccc2nc(N3CCS(=O)(=O)c4ccccc4C3)cc(NC(CO)CO)c2c1` [Example 11-1, 2-{[2-(1,1-Dioxido-2,3-dihydro-1,4-benzothiazepin-4(5H)-yl)-6-methylquinolin-4-yl]amino}propane-1,3-diol] displayed an EC50 of 0.069 µM. Under setting [1], `CN(C)C(=O)c1ccc2c(c1)CCCN(c1cc(NCCN)c3cc(Cl)ccc3n1)C2` [Example 123, 2-{4-[(2-Aminoethyl)amino]-6-chloroquinolin-2-yl}-N,N-dimethyl-2,3,4,5-tetrahydro-1H-2-benzazepine-7-carboxamide] came in with an EC50 of 3.14 µM. Same read-out and setting: under `Cc1ccc2nc(N3CCS(=O)(=O)c4ccccc4C3)cc(N[C@H]3CC[C@H](O)CC3)c2c1` [Example 8-1, trans-4-{[2-(1,1-Dioxido-2,3-dihydro-1,4-benzothiazepin-4(5H)-yl)-6-methylquinolin-4-yl]amino}cyclohexanol] stands 5.51 µM; under `Cc1ccc2nc(N3CCS(=O)(=O)c4ccccc4C3)cc(NCCC#N)c2c1` [Example 83, 3-{[2-(1,1-Dioxido-2,3-dihydro-1,4-benzothiazepin-4(5H)-yl)-6-methylquinolin-4-yl]amino}propanenitrile], 0.662 µM; under `Cc1ccc2nc(N3CCS(=O)(=O)c4ccccc4C3)nc(NCCN)c2c1` [Example 90, N-[2-(1,1-Dioxido-2,3-dihydro-1,4-benzothiazepin-4(5H)-yl)-6-methylquinazolin-4-yl]ethane-1,2-diamine], 0.005 µM. Regarding `NCCNc1cc(N2CCCc3ccccc3C2)nc2ccc(OC(F)(F)F)cc12` [Example 118-23, N-[2-(1,3,4,5-Tetrahydro-2H-2-benzazepin-2-yl)-6-(trifluoromethoxy)quinolin-4-yl]ethane-1,2-diamine], the EC50 under setting [1] is 2.64 µM. For the molecule `Cc1ccc2nc(N3CCSc4ccccc4C3)nc(NCC3(CN)COC3)c2c1` [Example 62-6, N-{[3-(Aminomethyl)oxetan-3-yl]methyl}-2-(2,3-dihydro-1,4-benzothiazepin-4(5H)-yl)-6-methylquinazolin-4-amine], it took 0.006 µM to reach a half-maximal effect under setting [1] (EC50).

`Cc1ccc2nc(N3CCS(=O)(=O)c4ccccc4C3)nc(NCC(F)CN)c2c1` (stereo not shown) [Example 56-5, N-[2-(1,1-Dioxido-2,3-dihydro-1,4-benzothiazepin-4(5H)-yl)-6-methylquinazolin-4-yl]-2-fluoropropane-1,3-diamine]: under setting [1], the EC50 stood at 0.022 µM. On the same count and under the same terms, under `NCCNc1cc(N2CCS(=O)(=O)c3ccccc3C2)nc2ccc(Cl)cc12` [Example 3-46, N-[6-Chloro-2-(1,1-dioxido-2,3-dihydro-1,4-benzothiazepin-4(5H)-yl)quinolin-4-yl]ethane-1,2-diamine] stands 0.053 µM; under `Cc1ccc2nc(N3CCS(=O)(=O)c4ccccc4C3)cc(NCC3COC3)c2c1` [Example 3-53, 2-(1,1-Dioxido-2,3-dihydro-1,4-benzothiazepin-4(5H)-yl)-6-methyl-N-(oxetan-3-ylmethyl)quinolin-4-amine], 0.261 µM; under `Cc1ccc2nc(N3CCS(=O)(=O)c4ccccc4C3)cc(NCC[S+](C)[O-])c2c1` (stereo not shown) [Example 74, 2-(1,1-Dioxido-2,3-dihydro-1,4-benzothiazepin-4(5H)-yl)-6-methyl-N-[2-(methylsulfinyl)ethyl]quinolin-4-amine], 1.94 µM. On the same count and under the same terms, then `NC1=N[C@@H](CCc2cc(N3CCCc4ccccc4C3)nc3ccccc23)CO1` [Example 131, (4S)-4-{2-[2-(1,3,4,5-Tetrahydro-2H-2-benzazepin-2-yl)quinolin-4-yl]ethyl}-4,5-dihydro-1,3-oxazol-2-amine], with 2.52 µM; and `Cc1ccc2nc(N3CCC(F)(F)c4ccccc4C3)cc(NCC3(CN)CS(=O)(=O)C3)c2c1` [Example 112-1, N-{[3-(Aminomethyl)-1,1-dioxidothietan-3-yl]methyl}-2-(5,5-difluoro-1,3,4,5-tetrahydro-2H-2-benzazepin-2-yl)-6-methylquinolin-4-amine], with 3.74 µM; and `CO[C@@H]1CNC[C@H]1Nc1cc(N2CCS(=O)(=O)c3ccccc3C2)nc2ccc(C)cc12` (relative stereo) [Example 8-4, 2-(1,1-Dioxido-2,3-dihydro-1,4-benzothiazepin-4(5H)-yl)-N-[trans-4-methoxypyrrolidin-3-yl]-6-methylquinolin-4-amine], with 0.064 µM. Same read-out and setting: then `Cc1ccc2nc(N3CCS(=O)(=O)c4ccccc4C3)cc(N(C)C)c2c1` [Example 16-2, 2-(1,1-Dioxido-2,3-dihydro-1,4-benzothiazepin-4(5H)-yl)-N,N,6-trimethylquinolin-4-amine], with 9.64 µM; and `[2H]C([2H])([2H])c1ccc2nc(N3CC[S+]([O-])c4ccccc4C3)nc(NCC3(CN)COC3)c2c1` (stereo not shown) [Example 107, N-{[3-(Aminomethyl)oxetan-3-yl]methyl}-6-trideuteriomethyl-2-(1-oxido-2,3-dihydro-1,4-benzothiazepin-4(5H)-yl)quinazolin-4-amine], with 0.001 µM; and `NCC(F)(F)CNc1cc(N2CC[S+]([O-])c3ccccc3C2)nc2ccc(Cl)cc12` (stereo not shown) [Example 18-6, N-[6-Chloro-2-(1-oxido-2,3-dihydro-1,4-benzothiazepin-4(5H)-yl)quinolin-4-yl]-2,2-difluoropropane-1,3-diamine], with 0.061 µM. Under setting [1], `Cc1ccc2nc(N3CCS(=O)(=O)c4ccccc4C3)cc(NCCN)c2c1F` [Example 9-21, N-[2-(1,1-Dioxido-2,3-dihydro-1,4-benzothiazepin-4(5H)-yl)-5-fluoro-6-methylquinolin-4-yl]ethane-1,2-diamine] had an EC50 of 0.021 µM.
